{"source": "ChEMBL document CHEMBL1201862", "about": "“PubChem BioAssay data set” (2004)", "key": {"[1]": {"target": "T1, Aryl hydrocarbon receptor (Homo sapiens, UniProt P35869)", "T1 sequence (P35869 whole entry)": "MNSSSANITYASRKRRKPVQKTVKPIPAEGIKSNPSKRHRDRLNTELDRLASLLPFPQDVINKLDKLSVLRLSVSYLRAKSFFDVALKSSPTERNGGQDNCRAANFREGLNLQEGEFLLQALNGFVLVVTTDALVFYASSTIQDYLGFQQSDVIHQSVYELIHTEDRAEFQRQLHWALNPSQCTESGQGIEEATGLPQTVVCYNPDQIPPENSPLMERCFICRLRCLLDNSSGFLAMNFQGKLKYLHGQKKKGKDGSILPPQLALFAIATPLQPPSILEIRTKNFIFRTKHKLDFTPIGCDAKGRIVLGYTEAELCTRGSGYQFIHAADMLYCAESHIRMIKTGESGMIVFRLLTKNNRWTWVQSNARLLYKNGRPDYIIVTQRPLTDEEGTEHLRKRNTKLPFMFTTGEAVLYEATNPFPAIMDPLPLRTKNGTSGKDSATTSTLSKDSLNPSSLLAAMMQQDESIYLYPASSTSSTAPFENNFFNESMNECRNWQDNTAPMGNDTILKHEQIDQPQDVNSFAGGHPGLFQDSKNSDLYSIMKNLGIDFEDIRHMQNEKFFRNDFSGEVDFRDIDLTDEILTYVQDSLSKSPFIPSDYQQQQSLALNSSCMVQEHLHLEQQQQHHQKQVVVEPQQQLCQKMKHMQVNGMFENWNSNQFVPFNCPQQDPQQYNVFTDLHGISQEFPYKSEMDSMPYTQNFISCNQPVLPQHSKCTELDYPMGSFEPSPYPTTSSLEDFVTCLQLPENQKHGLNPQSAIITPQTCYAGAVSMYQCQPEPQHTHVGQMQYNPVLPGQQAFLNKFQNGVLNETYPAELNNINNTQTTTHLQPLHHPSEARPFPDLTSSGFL", "details": "Potency"}, "[2]": {"target": "T2, Small ubiquitin-related modifier 1 (Homo sapiens, UniProt P63165)", "T2 sequence (P63165 whole entry)": "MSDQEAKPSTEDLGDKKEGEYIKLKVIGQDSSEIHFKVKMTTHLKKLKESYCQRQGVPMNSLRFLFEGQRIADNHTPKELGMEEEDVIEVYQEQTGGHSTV", "assay": "inhibitors of SUMO1 partner interactions, dose response, biochemical, FRET (AID 624383)", "format": "functional", "details": "read-out: IC50_Mean"}, "[3]": {"target": "T2, Small ubiquitin-related modifier 1", "assay": "inhibitors of SUMO1 peptide binding, dose response, biochemical, fluorescence polarization, uHTS hits (AID 624382)", "format": "functional", "details": "read-out: IC50_Mean"}, "[4]": {"target": "T3, Rac GTPase-activating protein 1 (Homo sapiens, UniProt Q9H0H5)", "T3 sequence (Q9H0H5 whole entry)": "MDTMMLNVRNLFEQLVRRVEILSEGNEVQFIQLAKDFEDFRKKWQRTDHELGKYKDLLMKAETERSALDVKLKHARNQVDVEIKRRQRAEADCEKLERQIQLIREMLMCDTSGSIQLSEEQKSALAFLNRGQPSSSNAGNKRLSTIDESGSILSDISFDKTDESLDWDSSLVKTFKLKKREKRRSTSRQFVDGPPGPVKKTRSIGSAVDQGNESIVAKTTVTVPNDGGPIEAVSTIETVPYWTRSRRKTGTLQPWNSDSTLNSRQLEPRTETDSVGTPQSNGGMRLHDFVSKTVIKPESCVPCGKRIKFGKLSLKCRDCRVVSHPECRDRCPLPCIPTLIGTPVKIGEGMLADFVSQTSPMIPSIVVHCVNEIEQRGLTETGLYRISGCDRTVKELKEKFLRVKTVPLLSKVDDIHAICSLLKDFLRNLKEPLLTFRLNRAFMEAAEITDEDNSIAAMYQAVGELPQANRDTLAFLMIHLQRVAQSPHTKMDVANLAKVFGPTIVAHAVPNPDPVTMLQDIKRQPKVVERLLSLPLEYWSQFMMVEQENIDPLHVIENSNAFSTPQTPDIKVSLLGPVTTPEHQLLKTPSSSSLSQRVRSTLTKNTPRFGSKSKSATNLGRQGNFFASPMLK", "assay": "MgcRacGAP GTPase-activating activity inhibitors, confirmation, biochemical, ADP Hunter fluorescence, primary and confirmatory (AID 624330)", "format": "functional"}, "[5]": {"target": "T4, Probable nicotinate-nucleotide adenylyltransferase (Staphylococcus aureus (strain N315), UniProt P65502)", "T4 sequence (P65502 whole entry)": "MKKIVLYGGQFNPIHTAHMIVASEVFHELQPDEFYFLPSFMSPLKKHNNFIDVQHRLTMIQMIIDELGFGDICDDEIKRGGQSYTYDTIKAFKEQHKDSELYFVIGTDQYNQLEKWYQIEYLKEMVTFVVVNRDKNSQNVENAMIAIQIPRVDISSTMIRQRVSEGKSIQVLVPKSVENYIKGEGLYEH", "format": "functional, Staphylococcus aureus subsp. aureus N315", "details": "read-out: IC50_Mean"}, "[6]": {"assay": "HeLa cell cytotoxicity, dose response, cytotoxicity control for MgcRacGAP inhibitor project (AID 624300)", "format": "functional"}, "[7]": {"target": "T4, Probable nicotinate-nucleotide adenylyltransferase", "format": "functional, Staphylococcus aureus subsp. aureus N315"}, "[8]": {"target": "Tyrosine-protein phosphatase non-receptor type 5 (Homo sapiens, UniProt P54829)", "sequence (P54829 whole entry)": "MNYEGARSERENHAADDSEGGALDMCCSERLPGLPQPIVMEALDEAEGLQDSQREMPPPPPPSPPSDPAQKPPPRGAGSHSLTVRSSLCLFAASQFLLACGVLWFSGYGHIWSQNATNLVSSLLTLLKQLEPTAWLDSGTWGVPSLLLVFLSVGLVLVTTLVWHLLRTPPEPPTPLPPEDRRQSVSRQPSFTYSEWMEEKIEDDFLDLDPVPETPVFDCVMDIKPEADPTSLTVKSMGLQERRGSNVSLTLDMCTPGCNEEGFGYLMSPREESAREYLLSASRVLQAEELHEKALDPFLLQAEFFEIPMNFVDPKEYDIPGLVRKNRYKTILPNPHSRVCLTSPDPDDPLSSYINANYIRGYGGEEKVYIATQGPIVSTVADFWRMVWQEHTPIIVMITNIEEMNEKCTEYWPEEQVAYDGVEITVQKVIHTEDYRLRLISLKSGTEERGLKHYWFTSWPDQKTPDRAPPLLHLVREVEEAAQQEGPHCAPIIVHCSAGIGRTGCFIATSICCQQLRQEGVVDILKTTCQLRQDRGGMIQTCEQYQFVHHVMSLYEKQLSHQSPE", "assay": "STEP phosphatase inhibitors, confirmation, biochemical, fluorescence intensity, uHTS hits (AID 602372)", "format": "functional", "details": "read-out: IC50_Mean"}, "Caspase-6": {"target": "T5, Caspase-6 (Homo sapiens, UniProt P55212)", "T5 sequence (P55212 whole entry)": "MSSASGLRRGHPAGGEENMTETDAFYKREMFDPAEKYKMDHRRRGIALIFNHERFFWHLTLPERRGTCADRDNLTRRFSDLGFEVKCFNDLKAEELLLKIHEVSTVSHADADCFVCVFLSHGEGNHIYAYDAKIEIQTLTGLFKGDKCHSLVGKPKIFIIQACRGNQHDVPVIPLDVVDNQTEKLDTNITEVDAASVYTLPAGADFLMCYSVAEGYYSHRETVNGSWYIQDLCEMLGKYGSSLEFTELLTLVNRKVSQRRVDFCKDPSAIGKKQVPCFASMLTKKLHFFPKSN", "assay": "human caspase-6 inhibitors, dose response, biochemical, VEID-R110 fluorescence, cherry-pick (AID 720632)"}, "[9]": {"target": "Dual specificity protein phosphatase 3 (Homo sapiens, UniProt P51452)", "sequence (P51452 whole entry)": "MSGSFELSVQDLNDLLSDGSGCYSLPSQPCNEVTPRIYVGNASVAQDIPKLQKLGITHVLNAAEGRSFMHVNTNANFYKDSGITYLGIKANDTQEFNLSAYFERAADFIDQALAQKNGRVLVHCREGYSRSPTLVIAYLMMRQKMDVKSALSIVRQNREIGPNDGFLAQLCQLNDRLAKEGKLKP", "assay": "VHR phosphatase inhibition, dose response, selectivity assay for STEP inhibitor project, biochemical (AID 602374)", "format": "functional", "details": "read-out: IC50_Mean"}, "[10]": {"target": "Tyrosine-protein phosphatase non-receptor type 11 (Homo sapiens, UniProt Q06124)", "sequence (Q06124 whole entry)": "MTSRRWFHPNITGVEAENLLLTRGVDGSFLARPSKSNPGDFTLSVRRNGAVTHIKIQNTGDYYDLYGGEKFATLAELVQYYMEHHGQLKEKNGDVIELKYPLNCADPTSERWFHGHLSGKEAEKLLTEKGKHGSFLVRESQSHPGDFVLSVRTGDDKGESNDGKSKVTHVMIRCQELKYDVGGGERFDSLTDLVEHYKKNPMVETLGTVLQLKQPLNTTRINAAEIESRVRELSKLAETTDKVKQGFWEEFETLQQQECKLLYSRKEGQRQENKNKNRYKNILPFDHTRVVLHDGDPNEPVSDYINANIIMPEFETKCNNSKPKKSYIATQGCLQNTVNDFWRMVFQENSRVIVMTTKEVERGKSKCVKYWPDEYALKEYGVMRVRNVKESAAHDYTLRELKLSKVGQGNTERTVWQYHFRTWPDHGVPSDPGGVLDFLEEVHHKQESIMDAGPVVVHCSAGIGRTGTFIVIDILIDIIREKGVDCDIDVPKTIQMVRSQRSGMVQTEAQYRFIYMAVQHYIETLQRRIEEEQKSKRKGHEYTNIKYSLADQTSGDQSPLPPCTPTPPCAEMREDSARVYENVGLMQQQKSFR", "assay": "SHP2 phosphatase inhibition, dose response, selectivity assay for STEP inhibitor project, biochemical (AID 602367)", "format": "functional", "details": "read-out: IC50_Mean"}, "[11]": {"target": "T6, Carboxy-terminal domain RNA polymerase II polypeptide A small phosphatase 1 (Homo sapiens, UniProt Q9GZU7)", "T6 sequence (Q9GZU7 whole entry)": "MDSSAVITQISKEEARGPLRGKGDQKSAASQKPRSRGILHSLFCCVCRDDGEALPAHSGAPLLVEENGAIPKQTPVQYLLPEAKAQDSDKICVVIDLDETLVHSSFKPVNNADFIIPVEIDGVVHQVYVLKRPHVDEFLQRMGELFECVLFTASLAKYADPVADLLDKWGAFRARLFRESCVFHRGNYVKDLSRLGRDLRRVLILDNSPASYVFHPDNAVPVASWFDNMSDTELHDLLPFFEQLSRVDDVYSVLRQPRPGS", "assay": "inhibitors of CTDSP1, concentration-response testing, biochemical assay, absorbance-based, actives from ultra-high-throughput screening (AID 540297)", "format": "functional"}, "[12]": {"target": "T7, COUP transcription factor 2 (Homo sapiens, UniProt P24468)", "T7 sequence (P24468 whole entry)": "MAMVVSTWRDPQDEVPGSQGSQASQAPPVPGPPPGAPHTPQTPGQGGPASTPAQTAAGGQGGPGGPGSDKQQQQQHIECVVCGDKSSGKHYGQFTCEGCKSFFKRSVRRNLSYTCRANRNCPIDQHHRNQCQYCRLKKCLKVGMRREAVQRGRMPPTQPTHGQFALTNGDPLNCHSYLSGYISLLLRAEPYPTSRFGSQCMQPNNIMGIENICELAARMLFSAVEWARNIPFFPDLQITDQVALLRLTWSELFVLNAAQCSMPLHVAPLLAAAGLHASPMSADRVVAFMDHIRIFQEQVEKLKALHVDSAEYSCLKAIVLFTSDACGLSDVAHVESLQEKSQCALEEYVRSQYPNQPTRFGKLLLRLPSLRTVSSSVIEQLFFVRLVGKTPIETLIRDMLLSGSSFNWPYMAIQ", "assay": "Luminescence-based cell-based high throughput dose response assay to identify inhibitors of COUP-TFII (NR2F2).", "format": "functional"}, "[13]": {"target": "Photoreceptor-specific nuclear receptor (Homo sapiens, UniProt Q9Y5X4)", "sequence (Q9Y5X4 whole entry)": "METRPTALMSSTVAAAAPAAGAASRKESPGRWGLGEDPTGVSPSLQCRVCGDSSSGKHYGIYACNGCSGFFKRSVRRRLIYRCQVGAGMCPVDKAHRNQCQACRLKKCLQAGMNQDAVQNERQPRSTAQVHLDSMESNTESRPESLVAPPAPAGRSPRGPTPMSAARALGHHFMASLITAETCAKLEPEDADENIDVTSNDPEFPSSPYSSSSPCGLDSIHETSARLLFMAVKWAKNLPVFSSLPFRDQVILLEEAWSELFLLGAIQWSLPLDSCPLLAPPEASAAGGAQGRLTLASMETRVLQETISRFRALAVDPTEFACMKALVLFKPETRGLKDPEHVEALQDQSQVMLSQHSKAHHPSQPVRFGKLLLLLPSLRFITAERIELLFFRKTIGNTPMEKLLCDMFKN", "format": "functional, cell-based"}, "[14]": {"target": "T8, Low molecular weight phosphotyrosine protein phosphatase (Homo sapiens, UniProt P24666)", "T8 sequence (P24666 whole entry)": "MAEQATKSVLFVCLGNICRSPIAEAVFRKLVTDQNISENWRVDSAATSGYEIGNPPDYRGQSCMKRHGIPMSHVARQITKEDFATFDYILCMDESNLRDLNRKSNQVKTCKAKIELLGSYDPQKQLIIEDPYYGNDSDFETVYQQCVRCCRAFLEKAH", "format": "functional", "details": "read-out: IC50_Mean"}, "[15]": {"target": "T8, Low molecular weight phosphotyrosine protein phosphatase", "format": "functional", "details": "read-out: IC50_Mean", "remark": "listed apart in the source"}}, "note": "Active and inactive are the calls of the source.", "data": [{"molecule": "O=[N+]([O-])c1cc(C(F)(F)F)c(Cl)c([N+](=O)[O-])c1Nc1ncc(C(F)(F)F)cc1Cl", "note": "[FLUAZINAM]", "values": [{"measurement": "AC50", "setting": "[1]", "result": "31.6 µM (inconclusive)"}]}, {"molecule": "Cc1cc(NCCCCCCCNc2cc(C)nc3cc([N+](=O)[O-])ccc23)c2ccc([N+](=O)[O-])cc2n1", "values": [{"measurement": "IC50", "setting": "[2]", "result": "2.12 µM (active)"}, {"measurement": "IC50", "setting": "[3]", "result": "> 66.6 µM (inactive)"}, {"measurement": "IC50", "setting": "[4]", "result": "26.1 µM (active)"}, {"measurement": "IC50", "setting": "[5]", "result": "23.2 µM (active)"}, {"measurement": "CC50", "setting": "[6]", "result": "37.8 µM (active)"}, {"measurement": "IC50", "setting": "[7]", "result": "15.2 µM (active)"}]}, {"molecule": "CC(=O)N1CCOc2ccc(S(=O)(=O)NCc3ccc(F)cc3)cc21", "values": [{"measurement": "IC50", "setting": "[8]", "result": "56.5 µM (inactive)"}, {"measurement": "AC50", "setting": "Caspase-6", "result": "11.2 µM (active)"}, {"measurement": "IC50", "setting": "[9]", "result": "2.66 µM (active)"}, {"measurement": "IC50", "setting": "[10]", "result": "4.64 µM (active)"}, {"measurement": "IC50", "setting": "[11]", "result": "9.32 µM (active)"}]}, {"molecule": "c1ccc(C(Cc2nc(-c3ccncc3)no2)c2ccccc2)cc1", "values": [{"measurement": "IC50", "setting": "[12]", "result": "14 µM (inactive)"}, {"measurement": "IC50", "setting": "[13]", "result": "5.57 µM (active)"}]}, {"molecule": "O=C(CCc1ccccc1)NNC(=O)c1ccc(NC(=O)c2ccccc2)cc1", "values": [{"measurement": "IC50", "setting": "[8]", "result": "17.3 µM (active)"}, {"measurement": "IC50", "setting": "[9]", "result": "3.9 µM (active)"}, {"measurement": "IC50", "setting": "[10]", "result": "3.98 µM (active)"}, {"measurement": "IC50", "setting": "[14]", "result": "31.2 µM (inactive)"}, {"measurement": "IC50", "setting": "[15]", "result": "24.9 µM (inactive)"}, {"measurement": "IC50", "setting": "[11]", "result": "6.27 µM (active)"}]}]}
